Test systems include CCRF-CEM; NCI-H23; SNB-19; HCC 2998; SK-MEL-28; HOP-62; OVCAR-5; SK-MEL-2; HCT-116; UACC-62; NCI-H460; M14; HCT-15; RPMI-8226; U-251; HL-60.
Holding throughout (assay): NCI-60 cell line screen, 48 h

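Five concentrations, 48 hours, 96-well plates. GI50: concentration for 50% inhibition of growth.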 Activity calls are given as the source filed them. No stated cut-off is given here; in the data, active = GI50 up to about 1.1 µM and inactive = higher. A value given as a limit tells only on which side of the number the result lay.

Results on 14 molecules are retold here after ChEMBL document CHEMBL1201862, “PubChem BioAssay data set” (2004).

Turning to `CC(C)NC(=O)CCN(C(=O)O)S(=O)(=O)c1ccc(NC(=O)c2ccccc2)cc1`, the GI50 in the assay on CCRF-CEM is > 43.9 µM (inactive); with NCI-H23, > 100 µM (inactive); with SNB-19, > 100 µM (inactive); in the assay with HCC 2998 it was > 100 µM (inactive); with SK-MEL-28 it was > 100 µM (inactive); in the assay on HOP-62, > 100 µM (inactive). Further, the GI50 is > 100 µM (inactive) in the assay with OVCAR-5; > 100 µM (inactive) with SK-MEL-2; > 39.7 µM (inactive) in the assay with HCT-116; > 45.5 µM (inactive) with UACC-62; > 43.2 µM (inactive) with NCI-H460; > 100 µM (inactive) in the assay on M14. Also, the GI50 in the assay on HCT-15 is more than 42.2 µM; with RPMI-8226, 34.8 µM (inactive); in the assay on U-251 it was 15.6 µM (inactive); in the assay with HL-60, > 48.8 µM (inactive).

For the molecule `CC1=C(c2cc(C(=O)Nc3cccc(C(F)(F)F)c3)nc(NC#N)n2)Sc2ccccc2N1`, the GI50 with CCRF-CEM is 68.7 µM (inactive); in the assay on NCI-H23, > 100 µM (inactive); in the assay on SNB-19 it was > 100 µM (inactive); with HCC 2998, > 100 µM (inactive); in the assay on SK-MEL-28, > 100 µM (inactive); in the assay on HOP-62, > 100 µM (inactive). The GI50 with OVCAR-5, in the assay with SK-MEL-2, with HCT-116, in the assay on UACC-62, with NCI-H460 and in the assay with M14 was > 100 µM (inactive) throughout. Besides, the GI50 was more than 100 µM with HCT-15, > 100 µM (inactive) with RPMI-8226, 86.5 µM (inactive) in the assay with U-251 and > 100 µM (inactive) in the assay with HL-60.

As to `CN(C)CC1CCC(=C2CCCC2)C1=O` (stereo not given), the GI50 in the assay with CCRF-CEM was 3.03 µM (inactive); with NCI-H23, 20 µM (inactive); with SNB-19, > 63.7 µM (inactive); in the assay with HCC 2998, 18.2 µM (inactive); in the assay on SK-MEL-28 it was 14.4 µM (inactive); in the assay with HOP-62, 14.3 µM (inactive). In addition, the GI50 in the assay on OVCAR-5 was 17 µM (inactive); with SK-MEL-2, 18.4 µM (inactive); in the assay on HCT-116, 13.6 µM (inactive); with UACC-62, 17.3 µM (inactive); in the assay with NCI-H460, 21.7 µM (inactive); in the assay on M14, 8.3 µM (inactive). The GI50 in the assay with HCT-15 was 5.65 µM; with RPMI-8226, 0.859 µM (active); with U-251 it was > 10 µM (inactive); in the assay with HL-60 it was 3.51 µM (inactive).

In the case of `CCOC(=O)c1c(-c2ccccc2)oc(-c2ccccc2)c1C(=O)OCC`, the GI50 is 41.1 µM (inactive) in the assay on CCRF-CEM; 89.3 µM (inactive) with NCI-H23; > 100 µM (inactive) in the assay with SNB-19; 67.1 µM (inactive) in the assay on HCC 2998; > 100 µM (inactive) in the assay with SK-MEL-28; > 100 µM (inactive) in the assay on HOP-62. In addition, the GI50 with OVCAR-5 is > 100 µM (inactive); in the assay on SK-MEL-2 it was 94.2 µM (inactive); in the assay on HCT-116 it was > 100 µM (inactive); in the assay on UACC-62 it was > 100 µM (inactive); with M14, > 100 µM (inactive); in the assay on RPMI-8226 it was 50 µM (inactive). Further, the results for the GI50 in the assay on U-251 and in the assay with HL-60 were > 100 µM (inactive) and 33.6 µM (inactive), respectively.

Consider `NC(=S)/N=C(/c1nc2ccc(Cl)cc2nc1O)C(O)c1ccccc1Cl` (stereo not given), for which the GI50 in the assay with CCRF-CEM, in the assay with NCI-H23, in the assay on HCC 2998, in the assay on SK-MEL-28, in the assay on HOP-62 and with OVCAR-5 was > 100 µM (inactive) throughout. The GI50 with SK-MEL-2 was > 100 µM (inactive); with UACC-62, > 100 µM (inactive); with NCI-H460, > 100 µM (inactive); in the assay on M14 it was > 100 µM (inactive); with HCT-15, more than 100 µM; in the assay with RPMI-8226, > 100 µM (inactive). Further, the GI50 in the assay on U-251 and with HL-60 was > 100 µM (inactive) in each case.

With `CCCCC#COP(=O)(OCC)OCC`, the GI50 in the assay on CCRF-CEM, in the assay with NCI-H23, in the assay on SNB-19, with HCC 2998, in the assay with HOP-62 and in the assay on OVCAR-5 was > 100 µM (inactive) throughout. Also, the GI50 was > 100 µM (inactive) in the assay on SK-MEL-2; > 100 µM (inactive) in the assay on HCT-116; > 100 µM (inactive) in the assay on UACC-62; > 100 µM (inactive) in the assay on NCI-H460; > 100 µM (inactive) in the assay on M14; more than 100 µM in the assay with HCT-15. Moreover, the GI50 with RPMI-8226, in the assay on U-251 and in the assay on HL-60 was > 100 µM (inactive) each time.

As for `CCCCCCCC1(c2ccc(N)cc2)CCC(=O)NC1=O` (stereo not given), the GI50 in the assay with CCRF-CEM was > 10 µM (inactive); with NCI-H23, 38.3 µM (inactive); in the assay on SNB-19 it was 47.4 µM (inactive); in the assay on HCC 2998 it was 29.8 µM (inactive); in the assay on SK-MEL-28 it was 28.7 µM (inactive); in the assay on HOP-62, 32.9 µM (inactive). Moreover, the GI50 in the assay on OVCAR-5 is 31.6 µM (inactive); with SK-MEL-2 it was 35.8 µM (inactive); in the assay with UACC-62, 26.7 µM (inactive); in the assay with NCI-H460, 26.7 µM (inactive); with M14 it was 32.4 µM (inactive); in the assay on HCT-15, 36.8 µM. In addition, the GI50 is 19.1 µM (inactive) in the assay on RPMI-8226 and 17 µM (inactive) in the assay on HL-60.

On to `CS(=O)(=O)NNS(=O)(=O)c1ccc(Cl)cc1`, for which the GI50 is 29.9 µM (inactive) in the assay with CCRF-CEM; > 100 µM (inactive) in the assay on NCI-H23; > 100 µM (inactive) in the assay on SNB-19; > 100 µM (inactive) with HCC 2998; > 100 µM (inactive) with HOP-62; > 100 µM (inactive) with SK-MEL-2. Moreover, the GI50 was > 100 µM (inactive) with HCT-116; > 100 µM (inactive) in the assay with UACC-62; > 100 µM (inactive) in the assay with NCI-H460; > 100 µM (inactive) with M14; more than 100 µM in the assay on HCT-15; > 100 µM (inactive) in the assay with RPMI-8226. The GI50 with U-251 and in the assay on HL-60 was > 100 µM (inactive) throughout.

As to `CCCCCC1C2C(=O)NC(=O)C1C(=O)NC2=O` (stereo not given), the GI50 in the assay on CCRF-CEM, in the assay on NCI-H23, in the assay with SNB-19, with HCC 2998, in the assay on SK-MEL-28 and with HOP-62 was > 100 µM (inactive) throughout. Further, the GI50 is > 100 µM (inactive) with OVCAR-5; > 100 µM (inactive) in the assay with SK-MEL-2; > 100 µM (inactive) in the assay on UACC-62; > 100 µM (inactive) in the assay on NCI-H460; > 100 µM (inactive) in the assay with M14; more than 100 µM with HCT-15. In addition, the GI50 with RPMI-8226 and with HL-60 was > 100 µM (inactive) each time.

`COC(=O)C1(F)C(=O)NC(=O)NC1OC` (stereo not given): the GI50 with CCRF-CEM was 3.08 µM (inactive); with NCI-H23 it was 30.3 µM (inactive); in the assay with SNB-19, > 100 µM (inactive); with SK-MEL-28 it was 59.6 µM (inactive); in the assay on HOP-62 it was 25.5 µM (inactive); in the assay on OVCAR-5 it was > 100 µM (inactive). Moreover, the GI50 with SK-MEL-2 was > 100 µM (inactive); in the assay on HCT-116, 7.8 µM (inactive); in the assay with UACC-62 it was 18.6 µM (inactive); in the assay with NCI-H460, 3.52 µM (inactive); in the assay on HCT-15, 22.9 µM; in the assay on RPMI-8226, 90.6 µM (inactive). Besides, the GI50 in the assay on U-251 was 24.5 µM (inactive); in the assay on HL-60, 3.09 µM (inactive).

`COc1ccc2c(c1)NC1(O)c3ccccc3C(=O)C21O` (stereo not given): the GI50 with CCRF-CEM, with NCI-H23, in the assay on SNB-19, in the assay on SK-MEL-28, in the assay on HOP-62 and in the assay on HCT-116 was > 100 µM (inactive) throughout. Also, the GI50 in the assay with UACC-62, in the assay with NCI-H460, in the assay with M14, in the assay on RPMI-8226, in the assay on U-251 and with HL-60 was > 100 µM (inactive) each time.

For the molecule `COC(=O)CCC(NC(=S)N/N=C/c1ccco1)C(=O)OC` (stereo not given), the GI50 in the assay on CCRF-CEM, in the assay with NCI-H23, with SNB-19, in the assay on HCC 2998, in the assay with SK-MEL-28 and in the assay on HOP-62 was > 100 µM (inactive) throughout. For the same molecule, the GI50 with OVCAR-5, in the assay with SK-MEL-2, in the assay on HCT-116, in the assay on UACC-62, in the assay on NCI-H460 and in the assay on M14 was > 100 µM (inactive) throughout. Also, the values for the GI50 in the assay with HCT-15, in the assay with U-251 and in the assay with HL-60 were more than 100 µM, > 100 µM (inactive) and > 100 µM (inactive), respectively.

In the case of `Cc1ccc2c(c1)C(c1cccc3ccccc13)OC2=O` (stereo not given), the GI50 was > 100 µM (inactive) in the assay on CCRF-CEM; 75.9 µM (inactive) with NCI-H23; 64.7 µM (inactive) in the assay with SNB-19; > 100 µM (inactive) in the assay with HCC 2998; > 100 µM (inactive) with SK-MEL-28; 21.4 µM (inactive) with HOP-62. Besides, the GI50 with OVCAR-5 is > 100 µM (inactive); with SK-MEL-2, > 100 µM (inactive); with HCT-116 it was > 100 µM (inactive); with UACC-62 it was > 100 µM (inactive); in the assay on NCI-H460 it was > 100 µM (inactive); in the assay with M14, 41 µM (inactive). The figures for the GI50 with HCT-15, in the assay with U-251 and in the assay with HL-60 were more than 100 µM, 58.2 µM (inactive) and > 100 µM (inactive), respectively.

`COC1=CC2(C=CC1=O)c1cc(OC)c(OC)cc1CCN2C(=O)c1ccccc1` (stereo not given): the GI50 with CCRF-CEM, in the assay on NCI-H23, in the assay with SNB-19, with HCC 2998, with SK-MEL-28 and with HCT-116 was > 100 µM (inactive) in each case. For the same molecule, the GI50 with UACC-62 is > 100 µM (inactive); in the assay on M14 it was > 100 µM (inactive); with HCT-15, more than 100 µM; with RPMI-8226, > 100 µM (inactive); in the assay with U-251 it was > 100 µM (inactive).
